The record followed here is ChEMBL document CHEMBL1139752, “New rifabutin analogs: synthesis and biological activity against Mycobacterium tuberculosis” (2006).

Assay type in all cases: functional
Assay [1] deals with Mycobacterium tuberculosis. Nature of the assay: Antimycobacterial activity against rifampicin and rifabutin resistant Mycobacterium tuberculosis ATCC 35838.
Assay [2] has as its system Mycobacterium tuberculosis. Nature of the assay: Antimycobacterial activity against streptomycin resistant Mycobacterium tuberculosis ATCC 35820.
For assay [3], the system named is Mycobacterium tuberculosis. Nature of the assay: Antimycobacterial activity against ethambutol resistant Mycobacterium tuberculosis ATCC 35837.
Assay [4] has as its system Mycobacterium tuberculosis. Put plainly: Antimycobacterial activity against isoniazid resistant Mycobacterium tuberculosis ATCC 35822.
Assay [5] has as its system Mycobacterium tuberculosis. Nature of the assay: Antimycobacterial activity against rifampicin and rifabutin resistant Mycobacterium tuberculosis.

Converted amounts (≈) assume the structure as drawn.

For the compound `CCCCN1[C@@H](c2ccccc2)C[C@@]2(C[C@H]1c1ccccc1)N=C1C(=C3NC(=O)/C(C)=C\C=C\[C@H](C)[C@H](O)[C@@H](C)[C@H](O)[C@H](C)[C@H](OC(C)=O)[C@H](C)[C@@H](OC)/C=C/O[C@@]4(C)Oc5c(C)c(O)c(c1c5C4=O)C3=O)N2`, the minimal inhibitory concentration (MIC) in assay [1] was 1 µg/mL (≈ 1 µM); in assay [2], 0.02 µg/mL (≈ 0.02 µM); in assay [3], 0.02 µg/mL (≈ 0.02 µM); in assay [4] it was 0.02 µg/mL (≈ 0.02 µM); in assay [5] it was greater than 1 µg/mL.

In the case of `COc1ccc([C@@H]2C[C@]3(C[C@H](c4ccc(OC)cc4)N2)N=C2C(=C4NC(=O)/C(C)=C\C=C\[C@H](C)[C@H](O)[C@@H](C)[C@H](O)[C@H](C)[C@H](OC(C)=O)[C@H](C)[C@@H](OC)/C=C/O[C@@]5(C)Oc6c(C)c(O)c(c2c6C5=O)C4=O)N3)cc1`, the MIC in assay [1] was 1 µg/mL (≈ 0.997 µM); in assay [2], 0.02 µg/mL (≈ 0.0199 µM); in assay [3], 0.02 µg/mL (≈ 0.0199 µM); in assay [4], 0.02 µg/mL (≈ 0.0199 µM); in assay [5], greater than 1 µg/mL.

Turning to `CO[C@H]1/C=C/O[C@@]2(C)Oc3c(C)c(O)c4c(c3C2=O)C2=N[C@@]3(C[C@@H](c5ccccc5)N[C@@H](c5ccccc5)C3)NC2=C(NC(=O)/C(C)=C\C=C\[C@H](C)[C@H](O)[C@@H](C)[C@H](O)[C@H](C)[C@H](OC(C)=O)[C@@H]1C)C4=O`, the MIC in assay [1] was found to be 0.5 µg/mL (≈ 0.53 µM); in assay [2], 0.02 µg/mL (≈ 0.0212 µM); in assay [3], 0.02 µg/mL (≈ 0.0212 µM); in assay [4], 0.02 µg/mL (≈ 0.0212 µM); in assay [5], 0.3 µg/mL (≈ 0.318 µM).

For the compound `C=CCN1[C@@H](c2ccccc2)C[C@@]2(C[C@H]1c1ccccc1)N=C1C(=C3NC(=O)/C(C)=C\C=C\[C@H](C)[C@H](O)[C@@H](C)[C@H](O)[C@H](C)[C@H](OC(C)=O)[C@H](C)[C@@H](OC)/C=C/O[C@@]4(C)Oc5c(C)c(O)c(c1c5C4=O)C3=O)N2`, the minimum inhibitory concentration (MIC) is greater than 1 µg/mL in assay [1]; 0.02 µg/mL (≈ 0.0203 µM) in assay [2]; 0.02 µg/mL (≈ 0.0203 µM) in assay [3]; 0.02 µg/mL (≈ 0.0203 µM) in assay [4]; greater than 1 µg/mL in assay [5].

Turning to `CO[C@H]1/C=C/O[C@@]2(C)Oc3c(C)c(O)c4c(c3C2=O)C2=N[C@]3(C[C@@H](c5ccccc5)N[C@@H](c5ccccc5)C3)NC2=C(NC(=O)/C(C)=C\C=C\[C@H](C)[C@H](O)[C@@H](C)[C@H](O)[C@H](C)[C@H](OC(C)=O)[C@@H]1C)C4=O`, the minimum inhibitory concentration (MIC) in assay [1] was 1 µg/mL (≈ 1.06 µM); in assay [2], 0.02 µg/mL (≈ 0.0212 µM); in assay [3], 0.02 µg/mL (≈ 0.0212 µM); in assay [4], 0.02 µg/mL (≈ 0.0212 µM); in assay [5] it was greater than 1 µg/mL.

`CO[C@H]1/C=C/O[C@@]2(C)Oc3c(C)c(O)c4c(c3C2=O)C2=N[C@@]3(C[C@@H](c5ccc(F)cc5)N[C@@H](c5ccc(F)cc5)C3)NC2=C(NC(=O)/C(C)=C\C=C\[C@H](C)[C@H](O)[C@@H](C)[C@H](O)[C@H](C)[C@H](OC(C)=O)[C@@H]1C)C4=O`: the MIC in assay [1] stood at 0.5 µg/mL (≈ 0.511 µM); in assay [2], 0.02 µg/mL (≈ 0.0204 µM); in assay [3], 0.02 µg/mL (≈ 0.0204 µM); in assay [4], 0.02 µg/mL (≈ 0.0204 µM); in assay [5], 0.3 µg/mL (≈ 0.306 µM).

Take `C=CCCN1[C@@H](c2ccccc2)C[C@@]2(C[C@H]1c1ccccc1)N=C1C(=C3NC(=O)/C(C)=C\C=C\[C@H](C)[C@H](O)[C@@H](C)[C@H](O)[C@H](C)[C@H](OC(C)=O)[C@H](C)[C@@H](OC)/C=C/O[C@@]4(C)Oc5c(C)c(O)c(c1c5C4=O)C3=O)N2`: the MIC is greater than 1 µg/mL in assay [1]; 0.02 µg/mL (≈ 0.0201 µM) in assay [2]; 0.02 µg/mL (≈ 0.0201 µM) in assay [3]; 0.02 µg/mL (≈ 0.0201 µM) in assay [4]; greater than 1 µg/mL in assay [5].

Turning to `CO[C@H]1/C=C/O[C@@]2(C)Oc3c(C)c(O)c4c(c3C2=O)C2=NC3(CCN(CC(C)C)CC3)NC2=C(NC(=O)/C(C)=C\C=C\[C@H](C)[C@H](O)[C@@H](C)[C@@H](O)[C@@H](C)[C@H](OC(C)=O)[C@@H]1C)C4=O` [RIFABUTIN], the minimal inhibitory concentration (MIC) in assay [1] was greater than 5 µg/mL; in assay [2], 0.02 µg/mL (≈ 0.0236 µM); in assay [3], 0.02 µg/mL (≈ 0.0236 µM); in assay [4], 0.02 µg/mL (≈ 0.0236 µM); in assay [5] it was greater than 5 µg/mL.

For `CO[C@H]1/C=C/O[C@@]2(C)Oc3c(C)c(O)c4c(O)c(c(/C=N/N5CCN(C)CC5)c(O)c4c3C2=O)NC(=O)/C(C)=C\C=C\[C@H](C)[C@H](O)[C@@H](C)[C@@H](O)[C@@H](C)[C@H](OC(C)=O)[C@@H]1C` [RIFAMPIN], the MIC in assay [1] was greater than 5 µg/mL; in assay [2] it was 0.02 µg/mL (≈ 0.0243 µM); in assay [3], 0.02 µg/mL (≈ 0.0243 µM); in assay [4], 0.02 µg/mL (≈ 0.0243 µM); in assay [5], greater than 5 µg/mL.
